In patent US20130203734A1, “ANTI-INFLAMMATORY AGENTS” (priority 2010, published 2013):

How the values were obtained:
[1] = test system: endotoxin-stimulated TNF-alpha levels; assay: Murine sub-lethal endotoxemia model, serum TNF-α by ELISA; format: in vivo, mice
Protocol: FIG. 2 is a graph showing the results of a murine sub-lethal endotoxemia test.
The anti-inflammatory efficacy of an exemplar compound according to the present invention was tested using the murine sub-lethal endotoxemia model.
Briefly, the method is as follows. Female CD1 mice (28-30g, ˜7 weeks of age) were dosed with their respective treatment in sterile filtered 1% CMC by oral gavage in a dose volume of 10 ml/kg one hour prior to an endotoxin (LPS) challenge. The endotoxin challenge was injected by the intraperitoneal route containing 675,000 Endotoxin Units of LPS (E. coli strain 0111:B4 (Code L4130)) in endotoxin free PBS. Mice were left for two hours and then exsanguinated under terminal anaesthesia and blood was taken. Serum was prepared from this terminal bleed and aliquoted and stored at −20° C. Serum TNF-α levels were measured by ELISA per manufacturers instructions (R and D Systems).
Eight animals were treated in each group, and the data for the animal with the highest and lowest TNF-α level in each group were eliminated, and the mean and standard error reported for the remaining six animals.

[2] = test system: MCP-1 induced migration of THP-1 cells; assay: Inhibition of MCP-1 induced leukocyte migration (transwell, THP-1 cells); format: cell-based; conditions: Homo sapiens, MCP-1 25 ng/ml, 2 hours 37° C., read-out: ED50 (concentration required to reduce MCP-1-induced migration by 50%)
Protocol: A. Inhibition of MCP-1 Induced Leukocyte Migration
In principle, this assay consists of two chambers separated by a porous membrane. The chemoattractant is placed in the lower compartment and the cells are placed in the upper compartment. After incubation for a period at 37° C. the cells move towards the chemoattractant, and the number of cells in the lower compartment is proportional to the chemoattractant activity (relative to a series of controls).
This assay can be used with a range of different leukocyte populations. For example, freshly prepared human peripheral blood leukocytes may used. Alternatively, leukocyte subsets may be prepared, including polymorphonuclear cells or lymphocytes or monocytes using methods well known to those skilled in the art such as density gradient centrifugation or magnetic bead separations. Alternatively, immortal cell lines which have been extensively validated as models of human peripheral blood leukocytes may be used, including, but not limited to THP-1 cells as a model of monocytes or Jurkat cells as model of naive T cells.
The transwell migration systems are manufactured by Neuroprobe, Gaithersburg, Md., USA.
The plates used are ChemoTx plates (Neuroprobe 101-8) and 30 μl clear plates (Neuroprobe MP30).
Geys' Balanced Salt Solution is purchased from Sigma (Sigma G-9779).
Fatty acid-free BSA is purchased from Sigma (Sigma A-8806). […]

[3] = test system: chemokine-induced migration; conditions: cited from earlier work
[4] = 37° C.; cited from earlier work
[5] = cited from earlier work
[6] = test system: MCP-1 induced migration of THP-1 cells; conditions: cited from earlier work

| Molecule | melting point [°C] | further results |
| --- | --- | --- |
| O=C1NCCC[C@@H]1NS(=O)(=O)c1ccccc1C(F)(F)F [Example 6, (S)—N-(2-oxopiperidin-3-yl)-2-(trifluoromethyl)benzenesulfonamide] | 161 to 163 | – |
| O=C1CCC(N2C(=O)c3ccccc3C2=O)C(=O)N1 (stereo not drawn) [thalidomide] | – | anti-inflammatory effect on TNF-α levels in vivo compared with the compound of Example 4 ([1]; thalidomide 10 mg/kg p.o., positive control, maximally effective dose): quantitatively similar |
| Cc1ccc(S(=O)(=O)NC2CCCNC2=O)cc1 (stereo not drawn) [Reference Example 1, 3-(4′-Methylbenzenesulfonylamino)tetrahydropyridin-2-one] | – | EC50 [2]: ≤ 100 nM |
| (S)-3-(undec-10-enoyl)-tetrahydropyridin-2-one | – | potency compared with the parental molecule (S)-3-(undec-10-enoyl)-aminoglutarimide [3]: considerably reduced potency; stability in human serum (completely stable for) [4]: at least 7 days |
| CCCCCCCCc1ccc(S(=O)(=O)N[C@H]2CCCNC2=O)cc1 [Example 19, (S)-3-(4′-Octylbenzenesulfonylamino)-tetrahydropyridin-2-one] | 98 to 99 | – |
| CCCCCCCCCC=CC(=O)NC1CCCCNC1=O (stereo not drawn) [dodec-2′,3′-enoyl-3-aminocaprolactam] | – | potency as BSCI relative to compounds with corresponding saturated alkyl tail groups [3]: markedly lower potency |
| c(DCys-DGln-DIle-DTrp-DLys-DGIn-DLys-DPro-DAsp-DLeu-DCys)-NH2 [NR58-3.14.3] | – | half-life of clearance from blood plasma ([5]; after intravenous injection): less than 30 minutes; oral bioavailability ([5]; in vivo, po): not orally bioavailable |
| Cc1ccc(S(=O)(=O)NC2CCCCNC2=O)cc1 (stereo not drawn) [Reference Example 2, 3-(4′-Methylbenzenesulfonylamino)azepan-2-one] | – | EC50 [2]: ≤ 100 nM |
| CCCCCCCCCCC(C)(C)C(=O)NC1CCCCNC1=O (stereo not drawn) [2′2′-dimethyldodecenanoyl-3-aminocaprolactam] | – | potency as a BSCI relative to dodecanoyl-3-aminocaprolactam ([6]; MCP-1 induced THP-1 cell migration assay): 10 fold |
| O=C1NCCCC[C@@H]1NC(=O)C12CC3CC(CC(C3)C1)C2 [(S)-3-(adamantane-1-carbonyl)aminocaprolactam] | – | anti-inflammatory effect in vivo compared with the compound of Example 4 ([1]; 1 mg/kg p.o.): similar |
| CCCCCCCCCC(C)(C)CC(=O)NC1CCCCNC1=O (stereo not drawn) [3′3′-dimethyldodecanoyl-3-aminocaprolactam] | – | potency as a BSCI relative to the linear alkyl analogs [6]: no more potent |
| O=C1NCCC[C@@H]1NS(=O)(=O)c1ccc(C(F)(F)F)cc1 [Example 4, (S)—N-(2-Oxopiperidin-3-yl)-4-(trifluoromethyl)-benzenesulfonamide] | – | inhibition of endotoxin-stimulated TNF-alpha levels ([1]; female CD1 mice, single dose 10 mg/kg p.o. one hour prior to LPS, serum 2 hours after LPS): 60-70% |

The next lines start with results.

| melting point [°C] | Molecule | further results |
| --- | --- | --- |
| 180 to 183 | O=C1NCCC[C@@H]1NS(=O)(=O)c1ccccc1F [Example 3, (S)-2-Fluoro-N-(2-oxopiperidin-3-yl)benzenesulfonamide] | – |
| 153 to 156 | O=C1NCCC[C@@H]1NS(=O)(=O)c1ccc(F)cc1 [Example 1, (S)-4-Fluoro-N-(2-oxopiperidin-3-yl)benzenesulfonamide] | – |
| 162 to 163 | O=C1NCCC[C@@H]1NS(=O)(=O)c1ccc(F)cc1F [Example 7, (S)-2,4-difluoro-N-(2-oxopiperidin-3-yl)benzenesulfonamide] | – |
| 158 to 160 | O=C1NCCC[C@@H]1NS(=O)(=O)c1cccc(C(F)(F)F)c1 [Example 5, (S)—N-(2-Oxopiperidin-3-yl)-3-(trifluoromethyl)benzenesulfonamide] | – |
| 159 to 160 | O=C1NCCC[C@@H]1NS(=O)(=O)c1cccc(F)c1 [Example 2, (S)-3-Fluoro-N-(2-oxopiperidin-3-yl)benzenesulfonamide] | – |
| 155 to 156 | CC(C)(C)c1ccc(S(=O)(=O)N[C@H]2CCCNC2=O)cc1 [Example 16, (S)-3-(4′-tert-Butylbenzenesulfonylamino)-tetrahydropyridin-2-one] | – |
| 153 to 155 | O=C1NCCC[C@@H]1NS(=O)(=O)c1ccc(F)c(F)c1 [Example 10, (S)-3,4-difluoro-N-(2-oxopiperidin-3-yl)benzenesulfonamide] | – |
| 170 to 174 | O=C1NCCC[C@@H]1NS(=O)(=O)c1cc(F)cc(F)c1 [Example 11, (S)-3,5-difluoro-N-(2-oxopiperidin-3-yl)benzenesulfonamide] | – |
| 152 to 153 | O=C1NCCC[C@@H]1NS(=O)(=O)c1c(F)cccc1F [Example 9, (S)-2,6-difluoro-N-(2-oxopiperidin-3-yl)benzenesulfonamide] | – |
| 183 to 185 | O=C1NCCC[C@@H]1NS(=O)(=O)c1cc(F)ccc1F [Example 8, (S)-2,5-difluoro-N-(2-oxopiperidin-3-yl)benzenesulfonamide] | – |
